Measurements: patent US9434724B2, “Quinuclidines for modulating alpha 7 activity” (priority 2014, dated 2016)

How the values were obtained:
[1] = Human plasma stability; assay type: in vitro ADME; details: plasma
Description: Protocol 1: Studies were carried out in human plasma. All plasma was obtained from Bioreclamation and collected on sodium heparin. Plasma was adjusted to pH 7.4. A DMSO stock was first prepared for the test compound. An aliquot of the DMSO solution was dosed into 1 mL of plasma, which had been pre-warmed to 37° C., at a final test compound concentration of 1 μM. The vials were kept in a benchtop Thermomixer® for the duration of the experiment. Aliquots (100 μL) were taken at each time point (0, 15, 30, 60, and 120 minutes) and added to 96-well plates which had been pre-filled with 300 μL of acetonitrile. Samples were stored at 4° C. until the end of the experiment. After the final time point was sampled, the plate was mixed and then centrifuged at 3,000 rpm for 10 minutes. Aliquots of the supernatant were removed, diluted 1:1 into distilled water, and analyzed by LC-MS/MS. The peak area response ratio to internal standard (PARR) of the compound at 15, 30, 60 and 120 minutes was compared to the PARR at time 0 to determine the percent of test compound remaining at each time point. Half-lives were calculated using GraphPad software, fitting to a single-phase exponential decay equation.
Protocol 2: Studies were carried out in plasma. Plasma was prepared under approval of IRB and IACUC on sodium heparin. The pH of plasma was monitored and used within the range of pH 7.4 to pH 8.0. DMSO stocks were prepared for the test compounds. Aliquots of the DMSO solutions were diluted to 0.05 mM by 0.05 mM Sodium phosphate buffer with 0.5% BSA. Then 10 μL of 0.05 mM solutions were dosed into 90 μL of plasma in duplicates (n=2), which had been pre-warmed to 37° C., at a final test compound concentration of 5 μM. The plates were kept in a 37° C. water bath for the duration of the experiment. At each time point (0, 5, 15, 30, 45, 60, and 120 minutes), 400 μL of acetonitrile was added into corresponding wells. After the final time point was sampled, the plates were shaken at the vibrator (IKA, MTS 2/4) for 10 min (600 rpm/min) and then centrifuged at 5594 g for 15 min (Thermo Multifuge×3R). Aliquots of the supernatant were removed, diluted 1:1 into distilled water, and analyzed by LC-MS/MS. The peak area response ratio to internal standard (PARR) of the compounds at 5, 15, 30, 45, 60, and 120 minutes was compared to the PARR at time 0 to determine the percent of test compound remaining at each time point. Half-lives were calculated using Excel software, fitting to a single-phase exponential decay equation.

[2] = Metabolic stability assay in rat liver microsomes (RLM); assay type: in vitro ADME; details: 1 μM
Description: (§1) Protocol 1: Studies were carried out in human and rat liver microsomes (“HLM” and “RLM,” respectively). Human and rat liver microsomes were purchased from BD Gentest. DMSO stocks were prepared for the test compounds. Aliquots of the DMSO solutions were diluted to 0.5 mM by acetonitrile, then further diluted by liver microsomes/buffer to 1.5 μM. 30 μL of 1.5 μM solutions were mixed with 15 μL of 6 mM NADPH, which had been pre-warmed to 37° C., at a final test compound concentration of 1 μM. The plates were kept in a 37° C. water bath for the duration of the experiment. At each time point (0, 5, 15, 30, 45 minutes), 135 μL of acetonitrile was added into corresponding wells. After the final time point was sampled, the plates were shaken at a vibrator (IKA, MTS 2/4) for 10 min (600 rpm/min) and then centrifuged at 5594 g for 15 min (Thermo Multifuge×3R). Aliquots of the supernatant were removed, diluted 1:1 into distilled water, and analyzed by LC-MS/MS. The peak area response ratio to internal standard (PARR) of the compounds at 5, 15, 30, 45 minutes was compared to the PARR at time 0 to determine the percent of test compound remaining at each time point. Half-lives were calculated using Excel software, fitting to a single-phase exponential decay equation.
(§2) Protocol 2: Studies were carried out in human and rat liver microsomes. Buffer solutions were prepared as follows: Buffer A: 1.0 L of 0.1 M monobasic Potassium Phosphate buffer containing 1.0 mM EDTA; Buffer B: 1.0 L of 0.1 M Dibasic Potassium Phosphate buffer containing 1.0 mM EDTA; Buffer C: 0.1 M Potassium Phosphate buffer, 1.0 mM EDTA, pH 7.4 by titrating 700 mL of buffer B with buffer A while monitoring with a pH meter.
(§3) Reference compound (Ketanserin) and test compound spiking solutions were prepared as follows: 500 μM spiking solution: add 10 μL of 10 mM DMSO stock solution into 190 μL ACN; 1.5 μM spiking solution in microsomes (0.75 mg/mL): add 1.5 μL of 500 μM spiking solution and 18.75 μL of 20 mg/mL liver microsomes into 479.75 μL of Buffer C.
(§4) NADPH stock solution (6 mM) was prepared by dissolving NADPH into buffer C.
(§5) Assay procedure: 30 μL of 1.5 μM spiking solution containing 0.75 mg/mL microsomes solution was dispensed to the wells designated for […]. The plate was pre-incubated at 37° C. for 10 minutes. 15 μL of NADPH stock solution (6 mM) was added to the wells designated as Time 45, and the timer was started. At 30 mM, 15 mM, and 5 mM, 15 μL NADPH stock solution (6 mM) was added to the wells, respectively. At the end of incubation (0 mM), 135 μL of ACN containing IS was added to all the wells. Then 15 μL of NADPH stock solution (6 mM) was added to the wells designated as Time 0. After quenching, the reaction mixtures were centrifuged at 3220 g for […]. Following centrifugation, 50 μL of the supernatant was transferred from each well into a 96-well sample plate containing 50 μL of ultra-pure water (Millipore) for LC/MS analysis. The peak area response (PARR) ratio to internal standard of the compounds at 5, 15, 30, and 45 minutes was compared to the PARR at time 0 to determine the percent of test compound remaining at each time point. Half-lives were calculated using Excel software, fitting to a single-phase exponential decay equation.

[3] = Metabolic stability assay in human liver microsomes (HLM); assay type: in vitro ADME; details: 1 μM
Description: as §1, §2, §3, §4, §5

[4] = target: rat brain nicotinic receptor (α7 NAChR) (Rattus norvegicus (Rat), UniProt Q05941); assay type: binding
Chain of rat brain nicotinic receptor (α7 NAChR) (Q05941 23-502 limits assumed): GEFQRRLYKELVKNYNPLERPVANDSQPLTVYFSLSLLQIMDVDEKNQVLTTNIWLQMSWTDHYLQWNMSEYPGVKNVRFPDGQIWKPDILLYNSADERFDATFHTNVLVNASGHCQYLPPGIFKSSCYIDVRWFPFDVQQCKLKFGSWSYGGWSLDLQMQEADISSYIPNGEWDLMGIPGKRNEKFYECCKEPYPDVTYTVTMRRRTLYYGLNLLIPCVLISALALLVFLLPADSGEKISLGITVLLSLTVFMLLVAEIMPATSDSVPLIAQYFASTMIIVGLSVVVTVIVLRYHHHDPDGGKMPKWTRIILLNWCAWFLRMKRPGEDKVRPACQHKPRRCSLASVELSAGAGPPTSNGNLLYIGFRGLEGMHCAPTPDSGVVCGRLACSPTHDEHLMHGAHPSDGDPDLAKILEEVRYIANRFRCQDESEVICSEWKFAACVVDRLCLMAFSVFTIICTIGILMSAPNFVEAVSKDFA

[5] = Protocol No. 1, rat liver microsomes
[6] = Protocol No. 1, human liver microsomes

Compound | % Remaining @ 2 h ([1]; human, 2 h, 5 μM) [%] | RLM ([2]; rat, microsomes) [mL/min/kg] | HLM ([3]; human, microsomes) [mL/min/kg] | % Remaining @ 2 h ([1]; Protocol No. 2, 5 μM, 37° C.) [%] | RLM [2, 5] [mL/min/kg] | HLM [3, 6] [mL/min/kg] | IC50 [4] [nM] | Ki [4] [nM] | T1/2 ([1]; Protocol No. 2, 5 μM, 37° C.) [h] | T1/2 ([1]; human)
O=C(OCC12CCN(CC1)CC2)c1c[nH]c2ccc3c(c12)OCCO3 [Compound 81, quinuclidin-4-ylmethyl 2,3-dihydro-7H-[1,4]dioxino[2,3-e]indole-9-carboxylate] | 70.89 | 75.96 | 5.94 | – | – | – | – | – | – | –
COc1cc2c(C(=O)OCC34CCN(CC3)CC4)c[nH]c2cc1C.Cl [Compound 79, quinuclidin-4-ylmethyl 5-methoxy-6-methyl-1H-indole-3-carboxylate hydrochloride] | – | – | – | 56.12 | 576.18 | 10.72 | – | – | – | –
Cc1ccc2[nH]cc(C(=O)OCC34CCN(CC3)CC4)c2c1C [Compound 70, quinuclidin-4-ylmethyl 4,5-dimethyl-1H-indole-3-carboxylate] | 71.56 | 1349.06 | 0 | – | – | – | 315 | 272 | – | –
COc1cc(C#N)cc2[nH]cc(C(=O)OCC34CCN(CC3)CC4)c12 [Compound 77, quinuclidin-4-ylmethyl 6-cyano-4-methoxy-1H-indole-3-carboxylate] | 71.03 | 87.668 | 10.4452 | – | – | – | 423 | 363 | – | –
quinuclidin-4-ylmethyl 6-fluoro-4-methoxy-1H-indole-3-carboxylate [Compound 82] | – | – | – | 48.22 | 433.66 | 8 | 412 | 357 | 2.0738 | –
COc1cc2c(C(=O)OCC34CCN(CC3)CC4)c[nH]c2cc1C#N [Compound 76, quinuclidin-4-ylmethyl 6-cyano-5-methoxy-1H-indole-3-carboxylate] | 72.92 | 41.0701 | 20.5897 | – | – | – | 643 | 552 | – | –
Cl.O=C(OCC12CCN(CC1)CC2)c1c[nH]c2cc(F)cc(Cl)c12 [Compound 64, quinuclidin-4-ylmethyl 4-chloro-6-fluoro-1H-indole-3-carboxylate hydrochloride] | – | – | – | 76.61 | 77.4932 | 2.7474 | 337 | 291 | – | –
O=C(OCC12CCN(CC1)CC2)c1c[nH]c2ccc(F)c(Br)c12 [Compound 67, quinuclidin-4-ylmethyl 4-bromo-5-fluoro-1H-indole-3-carboxylate] | 98.92 | 594.86 | 6.65 | – | – | – | 201 | 173 | – | –
Cl.O=C(OCC12CCN(CC1)CC2)c1c[nH]c2cc(Cl)cc(Cl)c12 [Compound 71, quinuclidin-4-ylmethyl 4,6-dichloro-1H-indole-3-carboxylate hydrochloride] | – | – | – | 72.03 | 121.175 | 6.768 | 457 | 394 | – | –
Cc1cc2c(C(=O)OCC34CCN(CC3)CC4)c[nH]c2cc1F [Compound 58, quinuclidin-4-ylmethyl 6-fluoro-5-methyl-1H-indole-3-carboxylate] | – | – | – | – | – | – | 1810 | 1550 | – | –
COc1cc2c(C(=O)OCC34CCN(CC3)CC4)c[nH]c2cc1Cl [Compound 69, quinuclidin-4-ylmethyl 6-chloro-5-methoxy-1H-indole-3-carboxylate] | 78.66 | 238.87 | 8.8 | – | – | – | 394 | 340 | – | –
Cc1cc2[nH]cc(C(=O)OCC34CCN(CC3)CC4)c2cc1Cl.Cl [Compound 66, quinuclidin-4-ylmethyl 5-chloro-6-methyl-1H-indole-3-carboxylate hydrochloride] | – | – | – | 71.77 | 934.845 | 0 | 1190 | 1010 | – | –
COc1cc2c(C(=O)OCC34CCN(CC3)CC4)c[nH]c2cc1O [Compound 86, quinuclidin-4-ylmethyl 6-hydroxy-5-methoxy-1H-indole-3-carboxylate] | 22.88 | 17.38 | 7.35 | – | – | – | – | – | – | –
COc1c(C)ccc2[nH]cc(C(=O)OCC34CCN(CC3)CC4)c12 [Compound 75, quinuclidin-4-ylmethyl 4-methoxy-5-methyl-1H-indole-3-carboxylate] | 120.98 | 474.267 | 5.749 | – | – | – | 52.5 | 45 | – | ∞
Cc1ccc2[nH]cc(C(=O)OCC34CCN(CC3)CC4)c2c1Br [Compound 68, quinuclidin-4-ylmethyl 4-bromo-5-methyl-1H-indole-3-carboxylate] | 103.13 | 1271.39 | 3.48 | – | – | – | 266 | 229 | – | ∞
O=C(OCC12CCN(CC1)CC2)c1c[nH]c2cccc(C3CC3)c12 [Compound 61, Quinuclidin-4-ylmethyl 4-cyclopropyl-1H-indole-3-carboxylate] | 93.59 | 434.65 | 10.81 | – | – | – | 1890 | 1620 | – | –
Cc1cc2c(C(=O)OCC34CCN(CC3)CC4)c[nH]c2cc1Cl [Compound 78, quinuclidin-4-ylmethyl 6-chloro-5-methyl-1H-indole-3-carboxylate] | 77.57 | 679.777 | 0 | – | – | – | 1130 | 970 | – | –
